Data set [1] deals with BT474 breast cancer cells. The experiment in a line: Orthotopic breast cancer xenograft model. The class given is in vivo, NOD/SCID mice. The following applies: trastuzumab or ADC Example 1 2.5 or 5 mg/kg; NMT inhibitor 1 2 mg/kg. The procedure: During the study, body weights were measured three times weekly for all animals. Animals were given Diet Gel for the entire duration on the study.

For data set [2], the system named is LNCaP tumours. The experiment in a line: LNCaP prostate cancer xenograft model. It counts as in vivo, male NOD SCID mice. The following applies: IV, Q7D (x3); for Tumour growth inhibition (TGI, %): day 28. From the text:
Adjusted p value calculated by Kruskal-Wallis test and Dunn's multiple comparisons relative to vehicle control. […] C is the mean tumour volume of the control Group 1 mice on the measurement day and C0 is the mean tumour volume on Study Day 0.

For data set [3], the system named is VCaP human prostate cancer xenograft. Description: VCaP prostate cancer xenograft model. The class given is in vivo, non-castrated male CB17/SCID mice. The procedure: The objective of this study was to evaluate preclinically the in vivo therapeutic efficacy of ADC Example 4 in the treatment of subcutaneous VCaP human prostate cancer xenograft model in non-castrated male CB17/SCID mice.
In this study, 144 mice were inoculated subcutaneously in the right front flank region with 1×10^7 viable VCaP tumour cells resuspended in 0.1 mL of PBS mixed with Matrigel (1:1) for tumour development on Study Day−20. 80 mice were assigned to 8 treatment groups when tumour volumes averaged ˜162.16 mm^3 on Study Day 0. Dosing commenced the following day and all animals were dosed intravenously with ADC Example 4, ifinatamab-deruxtecan (ifinatamab-Dxd) or unconjugated ifinatamab. All mice received two doses of test agent, on Study Day 1 and Study Day 8. The study was terminated on Study Day 30.

Data set [4] has as its system JIMT-1 human breast xenograft. The experiment in a line: JIMT-1 breast cancer xenograft model. The class given is in vivo. From the text: The study was terminated on the Study Day 60.

With `CNCc1cnc2ccc(-c3ccc(F)c(F)c3OCCc3c(C(O)C(C)(C)C)nn(C)c3C)cn12` (centres unmarked) [NMT inhibitor 1, 1-(4-(2-(2,3-difluoro-6-(3-((methylamino)methyl)imidazo[1,2-a]pyridin-6-yl)phenoxy)ethyl)-1,5-dimethyl-1H-pyrazol-3-yl)-2,2-dimethylpropan-1-ol], the “body weights of mice compared to vehicle control” value in data set [1] is reported as “decreased significantly”.
For the molecule ifinatamab, the “LNCaP tumour volume compared to vehicle control” value in data set [2] (5 mg/kg) and in data set [2] (10 mg/kg) was “no significant effect” each time. The “Tumour growth inhibition (TGI, %)” value in data set [2] (10 mg/kg) is on record as 13.0%. The “tumour volumes compared to vehicle alone” value in data set [3] (2.5 mg/kg) and in data set [3] (5 mg/kg) was “no significant difference” each time.
With sacituzumab, the results for the “tumour volumes compared to vehicle alone” value in data set [4] (2.5 mg/kg) and in data set [4] (5 mg/kg) were “no significant difference” and “significant decrease”, respectively.
As to “sacituzumab govitecan [reference compound]”, the “tumour volumes compared to vehicle alone” value in data set [4] (2.5 mg/kg) and in data set [4] (5 mg/kg) was “significant decrease” throughout.

B1: ifinatamab-DXd: ifinatamab-deruxtecan, comparator ADC (conjugate, chains of the INN, looked up)
VH: QVQLVQSGAEVKKPGSSVKVSCKASGYTFTNYVMHWVRQAPGQGLEWMGYINPYNDDVKYNEKFKGRVTITADESTSTAYMELSSLRSEDTAVYYCARWGYYGSPLYYFDYWGQGTLVTVSS
VL: EIVLTQSPATLSLSPGERATLSCRASSRLIYMHWYQQKPGQAPRPLIYATSNLASGIPARFSGSGSGTDFTLTISSLEPEDFAVYYCQQWNSNPPTFGQGTKVEIK
modifications: deruxtecan (DXd) payload
notes: ifinatamab-deruxtecan, comparator ADC
Turning to B1, the “Day 28 tumour volume (mm^3, mean ± SEM)” value in data set [2] (5 mg/kg) came out at 364.6 ± 51.7 mm^3; in data set [2] (10 mg/kg), 259.5 ± 50.3 mm^3. The “LNCaP tumour volume compared to vehicle control” value in data set [2] (5 mg/kg) is “slowed the growth of LNCaP tumours to a lesser extent”; in data set [2] (10 mg/kg) it was “significantly reduced the mean volume of LNCaP tumours”. For the same molecule, the “Tumour growth inhibition (TGI, %)” value in data set [2] (5 mg/kg) is reported as 58.8%; in data set [2] (10 mg/kg), 75.0%. Also, the “tumour volumes compared to vehicle alone” value in data set [3] (2.5 mg/kg) is given as “no significant difference”; in data set [3] (5 mg/kg), “significantly higher tumour volume”. Besides, the “ΔTGI (Study Day 17)” value in data set [3] (2.5 mg/kg IV QW × 2 weeks) is reported as 5.24%; in data set [3] (5 mg/kg IV QW × 2 weeks), 2.86%.

Source of the values: US20260166170A1, “ANTIBODY DRUG CONJUGATE COMPRISING NMT INHIBITOR AND ITS USE” (MyricX Pharma Limited, priority 2022, published 2026).
